Results taken from the supplement of paper PMC10307832.

How the values were obtained:
Experiment in all cases: relative viability (nuclei count vs DMSO), 5 days (fraction); higher = more cells survive
Tanzisertib + Olaparib = compound: O[C@H]1CC[C@H](Nc2ncc3nc(Nc4c(F)cc(F)cc4F)n([C@H]4CCOC4)c3n2)CC1 [Tanzisertib] + O=C(c1cc(Cc2n[nH]c(=O)c3ccccc23)ccc1F)N1CCN(C(=O)C2CC2)CC1 [Olaparib] (partner 8 µM)
Summary of the method: (§1)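 Relative viability equals treated-well nuclei counts divided by vehicle-well nuclei counts. Counts came from 4× images of lung cancer cell lines grown in 1536-well plates for 5 days after pin-tool dosing on the day after seeding. Dosing used one drug alone or a fixed anchor-drug dose plus five library-drug doses (not always all listed) in √10 steps, and values are medians of duplicate plates.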

[1] = compound: C1CNCCC1C2=CC(=NN2)C3=CC=NC=C3 + O=C(CCCCCCC(=O)Nc1ccccc1)NO [Vorinostat] (partner 1 µM)
Summary of the method: as §1

[2] = compound: C1CNCCC1C2=CC(=NN2)C3=CC=NC=C3 + C[C@@H](Oc1cc(-c2cnn(C3CCNCC3)c2)cnc1N)c1c(Cl)ccc(F)c1Cl [Crizotinib] (partner 1 µM)
Summary of the method: as §1

Tanzisertib + Navitoclax = compound: O[C@H]1CC[C@H](Nc2ncc3nc(Nc4c(F)cc(F)cc4F)n([C@H]4CCOC4)c3n2)CC1 [Tanzisertib] + CC1(C)CCC(c2ccc(Cl)cc2)=C(CN2CCN(c3ccc(C(=O)NS(=O)(=O)c4ccc(N[C@H](CCN5CCOCC5)CSc5ccccc5)c(S(=O)(=O)C(F)(F)F)c4)cc3)CC2)C1 [Navitoclax] (partner 0.5 µM)
Summary of the method: as §1

Cell Line	relative viability (Tanzisertib + Olaparib; first compound 0.253 µM)	relative viability (Tanzisertib + Olaparib; first compound 0.8 µM)	relative viability (Tanzisertib + Olaparib; first compound 2.53 µM)	relative viability (Tanzisertib + Olaparib; first compound 8 µM)	relative viability ([1]; first compound 0.08 µM)	relative viability ([1]; first compound 2.53 µM)	relative viability ([1]; first compound 8 µM)	relative viability ([2]; first compound 0.08 µM)	relative viability ([2]; first compound 0.8 µM)	relative viability ([2]; first compound 2.53 µM)	relative viability ([2]; first compound 8 µM)	relative viability (Tanzisertib + Olaparib; first compound 0.08 µM)	relative viability (Tanzisertib + Navitoclax; first compound 0.08 µM)	relative viability (Tanzisertib + Navitoclax; first compound 0.253 µM)	relative viability (Tanzisertib + Navitoclax; first compound 0.8 µM)	relative viability (Tanzisertib + Navitoclax; first compound 2.53 µM)	relative viability (Tanzisertib + Navitoclax; first compound 8 µM)	relative viability ([1]; first compound 0.8 µM)
SW 900	0.82	0.963	0.782	0.722	0.521	0.684	0.563	–	–	–	–	–	–	–	–	–	–	–
NCI-H1944	0.412	0.377	0.44	0.385	0.435	0.603	0.522	1.06	1.08	1.1	1.08	0.462	1.11	1.04	1.04	1.05	1.03	0.555
NCI-H727	0.678	0.553	0.734	0.686	1.25	1.29	1.18	0.718	1.1	1.05	0.776	0.69	0.377	0.354	0.481	0.477	0.502	1.08
NCI-H1650	0.778	0.882	0.671	0.662	0.46	0.804	0.489	0.43	1.08	1.07	0.963	0.807	1.19	1.22	1.17	1.16	1.12	0.597
HCC-827	0.716	0.711	0.54	0.355	0.698	1.03	0.912	0.979	0.932	1.01	0.883	0.616	0.961	1.01	1.11	1	0.742	0.861
HCC-366	0.319	0.36	0.353	0.308	0.444	0.426	0.372	0.462	0.559	0.551	0.536	–	1.16	1.02	1.08	1.13	1.01	0.36
HARA	0.844	0.715	1.28	0.849	0.669	0.527	0.481	1.05	1.08	1.05	1.03	0.876	1.13	1.18	1.13	1.14	1.22	0.62
NCI-H322M	0.836	0.762	0.89	0.726	0.95	0.99	0.953	0.851	0.875	0.878	0.955	0.805	1.34	1.12	1.11	1.16	1.16	0.854
LXF-289	1.02	1.12	1.02	1.13	0.783	0.723	0.766	0.842	0.88	0.801	0.837	1.13	1.05	0.917	1	0.962	1.03	0.785
PC-3 [JPC-3]	1.21	1.19	1.18	1.04	0.94	0.881	0.834	0.941	1.07	0.971	0.953	1.18	0.898	0.815	0.866	0.81	0.853	0.797
CAL-12T	0.767	0.567	0.641	0.844	0.693	0.964	0.981	0.473	0.74	0.716	0.774	0.731	1.21	1.18	1.37	1.37	1.34	0.932
COR-L 105	0.631	0.792	0.726	0.816	0.805	1.07	0.964	0.649	0.982	0.799	0.906	0.729	0.88	0.789	0.728	0.819	0.683	0.916
NCI-H2347	0.626	0.593	0.677	0.766	0.541	0.573	0.627	0.681	0.676	0.939	0.781	0.628	0.793	0.809	0.888	0.87	0.837	0.486
NCI-H2126	0.919	0.987	0.873	0.938	0.79	0.778	0.797	0.952	1.05	1.01	0.979	0.913	0.914	0.854	0.877	0.815	0.893	0.712
NCI-H838	0.756	0.741	0.725	0.788	0.763	0.744	0.688	0.844	0.924	0.954	0.796	0.823	1.18	1.15	1.26	1.18	1.12	0.744
A549	0.397	0.344	0.35	0.0802	–	–	–	0.784	0.849	0.857	0.797	0.297	1.3	1.08	1.26	1.1	1.3	–
NCI-H2342	0.423	0.483	0.485	0.439	0.706	0.774	0.809	–	–	–	–	0.572	–	–	–	–	–	0.71
SK-LU-1	0.538	0.453	0.491	0.373	0.783	0.857	0.729	1.03	0.936	0.989	0.947	0.502	0.834	0.748	0.759	1.25	0.8	0.766
NCI-H2085	0.763	0.745	0.803	0.76	0.858	0.809	0.845	0.976	0.938	0.973	0.825	–	1.11	1.05	1.2	1.09	1.14	–
NCI-H460	0.445	0.417	0.442	0.503	0.484	0.787	0.683	0.369	1.02	1.02	0.996	0.487	1.32	1.21	0.986	1.2	1.24	1.01
Calu-6	0.566	0.563	0.597	0.509	–	–	–	0.838	0.91	0.833	0.814	0.583	0.872	0.835	0.9	0.848	0.994	–

Cell Line	relative viability (Tanzisertib + Olaparib; first compound 0.253 µM)	relative viability (Tanzisertib + Olaparib; first compound 0.8 µM)	relative viability (Tanzisertib + Olaparib; first compound 2.53 µM)	relative viability (Tanzisertib + Olaparib; first compound 8 µM)	relative viability ([1]; first compound 0.08 µM)	relative viability ([1]; first compound 2.53 µM)	relative viability ([1]; first compound 8 µM)	relative viability ([2]; first compound 0.08 µM)	relative viability ([2]; first compound 0.8 µM)	relative viability ([2]; first compound 2.53 µM)	relative viability ([2]; first compound 8 µM)	relative viability (Tanzisertib + Olaparib; first compound 0.08 µM)	relative viability (Tanzisertib + Navitoclax; first compound 0.08 µM)	relative viability (Tanzisertib + Navitoclax; first compound 0.253 µM)	relative viability (Tanzisertib + Navitoclax; first compound 0.8 µM)	relative viability (Tanzisertib + Navitoclax; first compound 2.53 µM)	relative viability (Tanzisertib + Navitoclax; first compound 8 µM)	relative viability ([1]; first compound 0.8 µM)
RERF-LC-KJ	0.925	0.942	0.94	0.912	0.553	0.862	0.712	0.872	0.894	0.912	0.759	0.997	0.918	0.789	0.791	0.818	0.882	0.727
LCLC-103H	0.813	0.816	0.8	0.81	0.822	0.831	0.757	1.11	1.04	1.07	0.935	0.76	–	–	–	–	–	0.752
HCC-15	0.742	0.791	0.713	0.727	0.844	0.845	0.877	0.805	0.928	0.839	0.779	0.779	0.754	0.699	0.702	0.671	0.694	0.871
H3255	0.521	0.661	0.62	0.481	0.95	0.995	0.937	0.891	0.816	1.02	0.609	0.611	0.618	0.587	0.428	0.434	0.12	–
NCI-H1792	0.572	0.498	0.345	0.436	–	–	–	0.987	0.983	1.06	0.959	0.813	0.75	0.777	0.674	0.553	0.598	–
NCI-H1563	–	–	–	–	–	–	–	0.644	0.766	0.85	0.941	–	–	–	–	–	–	–
NCI-H596	0.657	0.622	0.625	0.697	0.73	0.638	0.589	0.984	1.15	1.04	0.991	0.758	0.978	0.91	0.972	0.888	0.96	0.417
NCI-H2087	0.576	0.501	0.52	0.588	0.682	0.738	0.684	0.837	1.02	0.976	0.666	0.552	1.04	0.961	0.957	1.04	0.95	0.8
NCI-H661	0.756	0.74	0.786	0.724	0.745	0.804	0.78	1.15	0.96	1.05	0.902	0.807	–	–	–	–	–	0.845
NCI-H522	0.809	0.726	0.647	0.634	0.911	0.998	1.04	–	–	–	–	0.629	–	–	–	–	–	0.762
EMC-BAC-2	0.477	0.455	0.488	0.533	–	0.498	0.436	0.705	0.772	0.751	0.793	0.484	1.23	1.16	1.18	1.12	1.07	0.475
NCI-H1355	0.735	0.756	0.757	0.796	0.637	0.788	0.637	1.02	1.03	1.12	1.13	0.772	0.954	0.923	0.961	0.985	0.944	0.629
NCI-H1299	0.972	0.96	1.1	1.03	–	–	–	0.991	1	0.99	0.9	0.997	1.06	1.09	1.06	1.08	1.12	–
NCI-H650	0.391	0.359	0.426	0.391	0.433	0.434	0.546	0.681	0.802	0.929	0.489	0.373	–	–	–	–	–	0.437
NCI-H358	0.547	0.586	0.583	0.492	0.492	0.907	0.617	0.479	0.526	0.633	0.474	0.623	–	–	–	–	–	0.654
NCI-H1648	1.22	0.797	0.817	0.765	0.381	–	0.488	–	–	–	–	0.662	–	–	–	–	–	0.518
EBC-1	0.675	0.675	0.603	0.536	–	–	–	0.202	0.219	0.233	0.192	0.747	0.433	0.419	0.451	0.404	0.318	–
NCI-H1395	0.445	0.455	0.42	0.45	0.668	0.842	0.792	–	–	–	–	0.462	1.05	1.27	1.43	1.1	1.01	0.597
ABC-1	0.757	0.634	0.701	0.792	1.2	1.1	1.14	0.988	1.12	1.04	1.18	0.838	–	–	–	–	–	1.01
NCI-H1703	0.453	0.388	0.35	0.392	–	–	–	0.823	0.813	0.824	1.01	0.457	1.12	0.837	1.05	1.03	0.927	–
NCI-H1793	0.807	0.873	0.77	0.592	0.647	0.985	0.874	–	–	–	–	0.876	0.432	0.424	0.445	0.39	0.382	–
